# Results: paper PMC3476947 (Journal of medicinal chemistry, 2012)
# Assays:
# [1] = test system: MBHA DNA substrate (25 base-pair); experiment: Fluorescent intercalator displacement; format: binding; settings: 1.5 μM compound, FID counterscreen
# [2] = target: T1, HCV NS3 helicase (NS3h_1b(con1)) (Hepatitis C virus genotype 1b, UniProt Q9WMX2); experiment: biochemical
# [3] = target: T1, HCV NS3 helicase (NS3h_1b(con1)); experiment: MBHA with RNA substrate; format: biochemical; settings: data not shown
# T1 sequence (Q9WMX2 1192-1657): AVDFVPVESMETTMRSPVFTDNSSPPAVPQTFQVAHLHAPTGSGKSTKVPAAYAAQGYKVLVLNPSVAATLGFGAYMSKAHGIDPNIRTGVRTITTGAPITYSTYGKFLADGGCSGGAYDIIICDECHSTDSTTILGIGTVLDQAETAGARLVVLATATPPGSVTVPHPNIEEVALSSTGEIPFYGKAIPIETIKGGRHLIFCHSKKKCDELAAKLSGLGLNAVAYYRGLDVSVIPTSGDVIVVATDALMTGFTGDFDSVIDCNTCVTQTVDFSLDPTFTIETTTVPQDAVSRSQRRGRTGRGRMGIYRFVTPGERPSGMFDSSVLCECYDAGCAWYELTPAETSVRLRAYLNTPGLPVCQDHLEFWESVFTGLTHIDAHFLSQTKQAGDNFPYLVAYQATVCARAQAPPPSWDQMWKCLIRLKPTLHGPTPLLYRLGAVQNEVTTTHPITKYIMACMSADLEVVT
"effect on HCV helicase-catalyzed DNA unwinding ([2]; MBHA, up to 100 μM)",SMILES,decrease of fluorescence of DNA-bound ethidium bromide [1],effect on HCV helicase-catalyzed RNA unwinding [3],IC50 [2]
,[Cl][Cd][Cl] [CdCl2],less than 8%,,
no effect,Cc1ccc2c(c1)sc(-c1ccc(N(C)C)cc1)[n+]2C.[Cl-] [thioflavine T],,no effect,
,CO[C@@H]1[C@H](O)C[C@@H](O[C@@H]2C[C@H](Oc3cc4cc5c(c(O)c4c(O)c3C)C(=O)[C@@H](O[C@H]3C[C@@H](O[C@H]4C[C@@H](O[C@H]6C[C@](C)(O)[C@@H](OC(C)=O)[C@H](C)O6)[C@H](O)[C@@H](C)O4)[C@H](O)[C@@H](C)O3)[C@H]([C@H](OC)C(=O)[C@@H](O)[C@@H](C)O)C5)O[C@H](C)[C@@H]2OC(C)=O)O[C@@H]1C [Chromomycin A3],,no effect,150 ± 30 nM
,Cc1c2ccncc2c(C)c2c1[nH]c1ccccc12 [ellipticine],less than 8%,,
